Here are results for nine compounds from patent US9173972B2, “Methods and compositions for promoting wound healing” (priority 2005, dated 2015).

The subject of assay [1] is Escherichia coli isolated from a dog with otitis externa. Kind of assay: MIC and MBC, isolates from dogs with otitis externa and pyoderma. It counts as cell-based. To be noted: E. coli. The protocol:
(§1) The formulation was tested against Pseudomonas aeruginosa, Proteus mirabilis, Escherichia coli, Staphylococcus intermedius, Malessezia pachydermatis, and Candida albicans.

The test system of assay [2] is Staphylococcus intermedius. The assay is described as above. It counts as cell-based. To be noted: S. intermedius; multiple of the 1x stock solution of the tested composition. The protocol:
as §1

In assay [3] the test system is Proteus mirabilis. The assay is described as above. It counts as cell-based. The following applies: P. mirabilis; multiple of the 1x stock solution of the tested composition. The protocol: as §1
In assay [4] the test system is Pseudomonas aeruginosa. Described as above. It counts as cell-based. The following applies: P. aeruginosa (dog isolate); multiple of the 1x stock solution of the tested composition. The protocol: as §1
In assay [5] the test system is Malassezia pachydermatis. Described as above. The format is cell-based. The following applies: M. pachydermatis; multiple of the 1x stock solution of the tested composition. The protocol: as §1
The subject of assay [6] is Candida albicans. The assay is described as above. It counts as cell-based. The following applies: C. albicans; multiple of the 1x stock solution of the tested composition. Here is the method: as §1
Assay [7] has as its system Staphylococcus aureus isolated from a human burn patient. In words: MIC and MBC of Tris, EDTA, cocamidopropyl betaine and silver combinations. The format is cell-based. To be noted: S. aureus (human burn isolate); multiple of the 1x stock solution of the tested composition.
In assay [8] the test system is Pseudomonas aeruginosa isolated from a human burn patient. Described as above. The format is cell-based. The following applies: P. aeruginosa (human burn isolate); multiple of the 1x stock solution of the tested composition.
The subject of assay [9] is Pseudomonas aeruginosa isolated from burn patients. In words: Antibiotic resistance profile, disc diffusion method. Note: key: R = resistant; I = intermediate; S = sensitive. It counts as cell-based. To be noted: P. aeruginosa. On the technique in general: A growth-free zone around the sample is the usual read-out of agar diffusion tests.
For assay [10], the system named is Staphylococcus aureus isolated from burn patients. Described as above. The format is cell-based. The following applies: S. aureus. Note: key: R = resistant; I = intermediate; S = sensitive.
The subject of assay [11] is Enterococcus faecalis isolated from burn patients. Described as above. It counts as cell-based. To be noted: E. faecalis.
Assay [12] relates to Staphylococcus aureus. In words: MIC/MBC microtiter dilution and checkerboard of EDTA-Tris and neomycin. The format is cell-based. The protocol: (§2) This example describes a method for determining the FIC values set forth in Example 4. […] Agents and Chem. pp. 210-217 (1967); and Sparks et al., Vet. Res. Comm. 18:241-249 (1994). Each of the foregoing publications are incorporated herein by reference.
(§3) Then 0.05 ml of an 18-hour old culture of a test organism, containing […] colony-forming units (CFU) ml, were added to each well. Controls for the culture and media were included in each plate. Plates were covered and incubated at 37° C. for 18-24 hours.
(§4) To generate isobolograms, FICs of the two test solutions were plotted individually on the x-axis and y-axis to determine the effect of combining the two test solutions on bacterial growth. A line that curves away from the zero point and the coordinates indicated antagonism. […] Goodman and Gilman, pp. 1085-1086 (Macmillan Publishing Co., New York, 1985); Sabath, L. D., Antimicrob. Agents and Chem. pp. 210-217 (1967) and incorporated herein by reference in their entireties.
(§5) 307 (pub: Am. Soc. Microbiol. Williams and Wilkins, Baltimore 1970), incorporated herein by reference in its entirety.

Assay [13] has as its system Enterococcus faecalis. The assay is described as above. The format is cell-based. The protocol: as §2, §3, §4, §5
Assay [14] concerns Pseudomonas aeruginosa. The description is as above. It counts as cell-based. The protocol: as §2, §3, §4, §5
Assay [15] relates to surface ulcers of Koi (multiple antibiotic-resistant pathogenic species). In words: Immersion bath treatment of Koi suffering from surface ulcers. It counts as in vivo, Koi (Cyprinus carpio). The following applies: antibiotic injected directly into the fish, before the bath treatment. The protocol:
An immersion treatment of the infected animals of 5 to 10 minutes on alternate days over a six day period promoted healing of most ulcers.
All of the treated fish had previously been given injections of Azactam, Baytril, and Amikacin. […] Among the species of bacteria found in the ulcers of the fish were representatives of the genera Aeromonas, Proteus, Klebsiella, Staphylococcus, Streptococcus, Enterobacter and Flavobacterium.
All fish were housed in a communal “hospital tank” before treatment and moved to an isolation tank after each treatment. The temperature of the bath was adjusted to that of the hospital tank temperature, 24 C, and adequate aeration was supplied to the treatment tank. Eight of the fish had external ulcers of various dimensions. Two of the fish were dropsied.

The subject of assay [16] is Aeromonas sobria. In words: MIC and FIC of EDTA and neomycin, Aeromonas isolated from ulcerated fish. It counts as cell-based. The following applies: A. sobria; EDTA in 50 mM Tris. Here is the method:
(§6) This example describes a method for determining the FIC values set forth in Example 4. […] Agents and Chem. pp. 210-217 (1967); and Sparks et al., Vet. Res. Comm. 18:241-249 (1994). Each of the foregoing publications are incorporated herein by reference. […] Then 0.05 ml of an 18-hour old culture of a test organism, containing […] colony-forming units (CFU) ml, were added to each well. Controls for the culture and media were included in each plate. Plates were covered and incubated at 37° C. for 18-24 hours. A numerical score or Fractional Inhibitory Concentration (FIC) index was determined. The FIC index is equal to the sum of the values of FIC for the individual drugs: An FIC index greater than 1.0 indicated an antagonistic interaction, an FIC index of 1.0 indicated addition, and an FIC index of less than or equal to 0.5 indicated synergism between the two test agents.

Assay [17] deals with Aeromonas caviae. Described as above. It counts as cell-based. To be noted: A. caviae; EDTA in 50 mM Tris. Here is the method: as §6
[18] abbreviates: multiple of the 1x stock solution of the tested composition.
Where [19] appears, read: neomycin co-administered with EDTA in 50 mM Tris.
[20] abbreviates: EDTA co-administered with neomycin in 50 mM Tris.
Throughout, for Antibiotic resistance profile: key: R = resistant; I = intermediate; S = sensitive.

As to cocamidopropyl betaine, the MBC in assay [1] is reported as 50% of stock solution; in [1] (setting [18]), 0.5x; in assay [2], 0.001x; in assay [3], 0.5x; in [4] it was 0.5x; in [5], 0.003x. The MBC is given as 0.003x in assay [6], 0.001x in assay [7] and 0.5x in [8]. Besides, the MIC in [1] is 25% of stock solution; in assay [1] (setting [18]) it was 0.25x; in [2], 0.001x; in assay [3], 0.25x; in assay [4], 0.25x; in assay [5], 0.001x. The MIC was found to be 0.001x in assay [6], 0.001x in [7] and 0.25x in assay [8].
In the case of `CN[C@H](CC(C)C)C(=O)N[C@H]1C(=O)N[C@@H](CC(N)=O)C(=O)N[C@H]2C(=O)N[C@H]3C(=O)N[C@H](C(=O)N[C@H](C(=O)O)c4cc(O)cc(O)c4-c4cc3ccc4O)[C@H](O)c3ccc(c(Cl)c3)Oc3cc2cc(c3O[C@@H]2O[C@H](CO)[C@@H](O)[C@H](O)[C@H]2O[C@H]2C[C@](C)(N)[C@H](O)[C@H](C)O2)Oc2ccc(cc2Cl)[C@H]1O` [Va, vancomycin], the Antibiotic resistance profile entry is given as “R” in assay [9], “S” in assay [10] and “R” in assay [11].
Take neomycin: the Antibiotic resistance profile result in assay [9], in [10] and in assay [11] was “R” in each case. In addition, the “MBC, Co-administered” value in [12] (setting [19]) came out at 1560 µg/mL; in [13] (setting [19]), 6250 µg/mL; in assay [14] (setting [19]), 40 µg/mL. In addition, the entries for the “MBC, Individually Administered” value in assay [13] (neomycin alone in 50 mM Tris) and in assay [14] (neomycin alone in 50 mM Tris) were 25000 µg/mL and 5000 µg/mL, respectively.
For `NCC[C@H](O)C(=O)N[C@@H]1C[C@H](N)[C@@H](O[C@H]2O[C@H](CN)[C@@H](O)[C@H](O)[C@H]2O)[C@H](O)[C@H]1O[C@H]1O[C@H](CO)[C@@H](O)[C@H](N)[C@H]1O` [Amikacin], the “healing of visible ulcers” value in assay [15] is listed as “failed to heal visible ulcers”.
Turning to gentamicin [GM], the Antibiotic resistance profile entry in assay [9] was “I”; in assay [10], “S”; in assay [11] it was “R”.
In the case of `CCN1CCN(c2cc3c(cc2F)c(=O)c(C(=O)O)cn3C2CC2)CC1` [Baytril], the “healing of visible ulcers” value in [15] is “failed to heal visible ulcers”.
Same read-out and setting: next, `C[C@H]1[C@H](NC(=O)/C(=N\OC(C)(C)C(=O)O)c2csc(N)n2)C(=O)N1S(=O)(=O)O` [Azactam]: “failed to heal visible ulcers”.
Consider oxacillin/methicillin, for which the Antibiotic resistance profile entry in assay [9], in assay [10] and in assay [11] was “R” throughout.
With `O=C(O)CN(CCN(CC(=O)O)CC(=O)O)CC(=O)O` [EDTA, ethylenediaminetetraacetate], the figures for the “MIC, EDTA alone” value in assay [16] and in assay [17] were 15.6 and less than 0.49, respectively. For the same compound, the “MBC, Co-administered” value in assay [12] (setting [20]) is recorded as 3.9 mM; in assay [13] (setting [20]), 62.5 mM; in assay [14] (setting [20]), 20.0 mM. Also, the “MBC, Individually Administered” value in assay [13] (EDTA alone in 50 mM Tris) and in assay [14] (EDTA alone in 50 mM Tris) was 250 mM in each case.
